Holding throughout (format): in vivo
Assay [1] deals with Heliothis virescens (Tobacco Budworm). Kind of assay: Example B2: activity against Heliothis virescens, ovo-larvicide, feeding/contact, curative. The settings on record: 96 h, 4 days incubation, eggs 0-24 h old. On the procedure: Activity Against Heliothis virescens (Tobacco Budworm)
(Ovo-Larvicide, Feeding/Contact Activity, Curative)
Eggs (0-24 h old) are placed in 24-well microtiter plate on artificial diet and treated with test solutions by pipetting. After an incubation period of 4 days, samples are checked for egg mortality, larval mortality, and growth regulation.

In assay [2] the test system is Spodoptera littoralis (Egyptian Cotton Leafworm). Put plainly: Example B1: activity against Spodoptera littoralis, larvicide, feeding/residual contact, preventive (cotton leaf discs). The settings on record: foliar, 72 h, 3 days after treatment, L1 larvae. The source says:
Activity Against Spodoptera littoralis (Egyptian Cotton Leafworm)
(§1) (Larvicide, Feeding/Residual Contact Activity, Preventive)
The samples are checked for mortality, repellent effect, feeding behaviour, and growth regulation 3 days after treatment. In this test, compounds listed in Table P above show good activity. In particular compounds P.1, P.2, P.3, P.4, P.5, P.6, P.7, P.9, P.10, P.11, P.12, P.13, P.15, P.16, P.17, P.18, P.19, P.20, P.21, P.22, P.23, P.24, P.25, P.26, P.27, P.28, P.29, P.30, P.31, P.32, P.33, P.34, P.35, P.36, P.37, P.38, P.39, P.40, P.41, P.42, P.43, P.44, P.45, P.46, P.47, P.48, P.49, P.50, P.51, P.52, P.53, P.54, P.55, P.56, P.57, P.58, P.59, P.60, P.61, P.63, P.64, P.67, P.68 and P.70 show an activity of over 80% at a concentration of 400 ppm.

Assay [3] has as its system Plutella xylostella (Diamond Back Moth). Kind of assay: Example B3: Plutella xylostella, larvicide, feeding/residual contact, preventive (artificial diet MTP). The settings on record: 120 h, 5 days incubation, L2 larvae. On the procedure: Plutella xylostella (Diamond Back Moth)
as §1
24-well microtiter plate (MTP) with artificial diet is treated with test solutions by pipetting. After drying, the MTP's are infested with larvae (L2)(10-15 per well). After an incubation period of 5 days, samples are checked for larval mortality, antifeedant and growth regulation. In this test, compounds listed in Table P above show good activity. In particular compounds P.1, P.2, P.3, P.4, P.5, P.6, P.7, P.9, P.10, P.11, P.12, P.13, P.15, P.16, P.17, P.18, P.19, P.20, P.21, P.22, P.23, P.25, P.26, P.27, P.28, P.29, P.30, P.31, P.32, P.33, P.34, P.35, P.36, P.37, P.38, P.39, P.40, P.41, P.42, P.43, P.44, P.46, P.47, P.48, P.49, P.50, P.51, P.52, P.53, P.54, P.55, P.56, P.57, P.58, P.59, P.60, P.61, P.63, P.64, P.67, P.68, P.69 P.70, P.72, P.74, P.77, P78 and P.79 show an activity of over 80% at a concentration of 400 ppm.

Assay [4] concerns Diabrotica balteata (Corn Root Worm). Kind of assay: Example B4: Diabrotica balteata, larvicide, feeding/residual contact, preventive. Conditions: 120 h, 5 days incubation, L2 larvae. The procedure:
Diabrotica balteata (Corn Root Worm)
as §1
After drying, the MTP's are infested with larvae (L2)(6-10 per well). After an incubation period of 5 days, samples are checked for larval mortality, antifeedant and growth regulation. In this test, compounds listed in Table P above show good activity. In particular compounds P.1, P.2, P.5, P.6, P.10, P.11, P.12, P.13, P.15, P.16, P.17, P.18, P.19, P.24, P.25, P.27, P.28, P.29, P.30, P.31, P.33, P.34, P.35, P.37, P.38, P.39, P.42, P.43, P.44, P.45, P.46, P.47, P.48, P.49, P.50, P.52, P.53, P.65, P.67, P.68, P.69, P.70, P.71, P.72, P.75, P.78, and P.79 show an activity of over 80% at a concentration of 400 ppm.

This note sets out measurements from US8658801B2, “Pesticides containing a bicyclic bisamide structure” (Syngenta Crop Protection, LLC, priority 2006, dated 2014).

The pest or weed control is the degree to which the test organism was suppressed or injured, in per cent. Read a low pest or weed control as a weak effect.

Structures are written as SMILES.

Regarding `O=C(NCC1CC1)c1c(NC(=O)c2cc(C(F)(F)F)nn2-c2ncccc2Cl)ccc2cn[nH]c12` [P.4], the pest or weed control at 400 ppm in assay [1], in assay [2] and in assay [3] was greater than 80% throughout.

With `CC(C)NC(=O)c1c(NC(=O)c2cc(C(F)(F)F)nn2-c2ncccc2Cl)ccc2ncccc12` [P.75, 6-{[2-(3-chloro-pyridin-2-yl)-5-trifluoromethyl-2H-pyrazole-3-carbonyl]-amino}-quinoline-5-carboxylic acid isopropylamide], the pest or weed control at 400 ppm in assay [4] was greater than 80%.

Regarding `CCCc1nc2cc(C)c(NC(=O)c3cc(C(F)(F)F)nn3-c3ncccc3Cl)c(C(=O)NC(C)C)c2cc1CC` [P.24], the pest or weed control at 400 ppm in assay [2] and in assay [4] was greater than 80% in each case.

`Cc1n[nH]c2c(C(=O)NC(C)C)c(NC(=O)c3cc(C(F)(F)F)nn3-c3ncccc3Cl)c(Cl)cc12` [P.69, 5-chloro-6-{[2-(3-chloro-pyridin-2-yl)-5-trifluoromethyl-2H-pyrazole-3-carbonyl]-amino}-3-methyl-1H-indazole-7-carboxylic acid isopropylamide]: the pest or weed control at 400 ppm in assay [1], in assay [3] and in assay [4] was greater than 80% in each case.

With `O=C(NC1(C2CC2)CC1)c1c(NC(=O)c2cc(C(F)(F)F)nn2-c2ncccc2Cl)ccc2cn[nH]c12` [P.5], the pest or weed control at 400 ppm in assay [1], in assay [2], in assay [3] and in assay [4] was greater than 80% each time.

As for `CSCC(C)(C)NC(=O)c1c(NC(=O)c2cc(C(F)(F)F)nn2-c2ncccc2Cl)ccc2cn[nH]c12` [P.7], the pest or weed control at 400 ppm in assay [1], in assay [2] and in assay [3] was greater than 80% throughout.

Consider `Cc1cc2c(ccc(C)[n+]2[O-])c(C(=O)NC(C)C)c1NC(=O)c1cc(C(F)(F)F)nn1-c1ncccc1Cl` [P.21], for which the pest or weed control at 400 ppm in assay [1], in assay [2] and in assay [3] was greater than 80% throughout.

Regarding `CCNC(=O)c1c(NC(=O)c2cc(C(F)(F)F)nn2-c2ncccc2Cl)c(C)cc2nc(C)ccc12` [P.23], the pest or weed control at 400 ppm in assay [1], in assay [2] and in assay [3] was greater than 80% throughout.

Regarding `CNC(=O)c1c(NC(=O)c2cc(C(F)(F)F)nn2-c2ncccc2Cl)ccc2cccnc12` [P.74, 7-{[2-(3-chloro-pyridin-2-yl)-5-trifluoromethyl-2H-pyrazole-3-carbonyl]-amino}-quinoline-8-carboxylic acid methylamide], the pest or weed control at 400 ppm in assay [1] and in assay [3] was greater than 80% each time.

Consider `CNC(=O)c1c(NC(=O)c2cc(C(F)(F)F)nn2-c2ncccc2Cl)c(C)cc2ncccc12` [P.77, 6-{[2-(3-chloro-pyridin-2-yl)-5-trifluoromethyl-2H-pyrazole-3-carbonyl]-amino}-7-methyl-quinoline-5-carboxylic acid methylamide], for which the pest or weed control at 400 ppm in assay [1] and in assay [3] was greater than 80% each time.

Turning to `Cc1n[nH]c2c(C(=O)NC3(C4CC4)CC3)c(NC(=O)c3cc(C(F)(F)F)nn3-c3ncccc3Cl)c(Cl)cc12` [P.72, 5-chloro-6-{[2-(3-chloro-pyridin-2-yl)-5-trifluoromethyl-2H-pyrazole-3-carbonyl]-amino}-3-methyl-1H-indazole-7-carboxylic acid bicyclopropyl-1-ylamide], the pest or weed control at 400 ppm in assay [1], in assay [3] and in assay [4] was greater than 80% each time.

Take `C#Cc1cc2cn[nH]c2c(C(=O)NC2(C3CC3)CC2)c1NC(=O)c1cc(C(F)(F)F)nn1-c1ncccc1Cl` [P.79, 6-{[2-(3-chloro-pyridin-2-yl)-5-trifluoromethyl-2H-pyrazole-3-carbonyl]-amino}-5-ethynyl-1H-indazole-7-carboxylic acid bicyclopropyl-1-ylamide]: the pest or weed control at 400 ppm in assay [3] and in assay [4] was greater than 80% throughout.
